Laboratory results: patent publication US20230310428A1, “EGFR INHIBITOR AND PREPARATION METHOD AND USE THEREOF” (HONGYUN BIOTECH CO., LTD., priority 2020, published 2023)
Where two headings read alike, the source gives them in different places.

Experiments:
Experiment in all cases: Growth inhibitory activity of compounds on BaF3 cell lines stably transfected with kinase (MTS, 48 h)
Format in all cases: cell-based
[1] = target: T1, various mutants of kinase EGFR (BaF3 cell lines stably transfected with kinase) (Homo sapiens, UniProt P00533)
T1 construct: other: BaF3 cells stably transfected with EGFR Δ19Del; MTS, 48 h; other: BaF3 cell line stably transfected with EGFR Δ19Del
How it was run: (§1)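 OD at 490 nm after 1-4 h MTS/PES incubation gave growth inhibition relative to 0.1% DMSO negative and cell-free medium blank. Compounds: 8-point 1/3 dilution from 10 µM, 48 h, 37 °C. IC50 from inhibition curves; duplicates.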

[2] = target: T2, various mutants of kinase EGFR (BaF3 cell lines stably transfected with kinase) (Homo sapiens, UniProt P00533, L858R/T790M)
T2 construct: expressed in transfected cells; host or cells: BaF3
T2 sequence (P00533 25-1210 T790M/L858R): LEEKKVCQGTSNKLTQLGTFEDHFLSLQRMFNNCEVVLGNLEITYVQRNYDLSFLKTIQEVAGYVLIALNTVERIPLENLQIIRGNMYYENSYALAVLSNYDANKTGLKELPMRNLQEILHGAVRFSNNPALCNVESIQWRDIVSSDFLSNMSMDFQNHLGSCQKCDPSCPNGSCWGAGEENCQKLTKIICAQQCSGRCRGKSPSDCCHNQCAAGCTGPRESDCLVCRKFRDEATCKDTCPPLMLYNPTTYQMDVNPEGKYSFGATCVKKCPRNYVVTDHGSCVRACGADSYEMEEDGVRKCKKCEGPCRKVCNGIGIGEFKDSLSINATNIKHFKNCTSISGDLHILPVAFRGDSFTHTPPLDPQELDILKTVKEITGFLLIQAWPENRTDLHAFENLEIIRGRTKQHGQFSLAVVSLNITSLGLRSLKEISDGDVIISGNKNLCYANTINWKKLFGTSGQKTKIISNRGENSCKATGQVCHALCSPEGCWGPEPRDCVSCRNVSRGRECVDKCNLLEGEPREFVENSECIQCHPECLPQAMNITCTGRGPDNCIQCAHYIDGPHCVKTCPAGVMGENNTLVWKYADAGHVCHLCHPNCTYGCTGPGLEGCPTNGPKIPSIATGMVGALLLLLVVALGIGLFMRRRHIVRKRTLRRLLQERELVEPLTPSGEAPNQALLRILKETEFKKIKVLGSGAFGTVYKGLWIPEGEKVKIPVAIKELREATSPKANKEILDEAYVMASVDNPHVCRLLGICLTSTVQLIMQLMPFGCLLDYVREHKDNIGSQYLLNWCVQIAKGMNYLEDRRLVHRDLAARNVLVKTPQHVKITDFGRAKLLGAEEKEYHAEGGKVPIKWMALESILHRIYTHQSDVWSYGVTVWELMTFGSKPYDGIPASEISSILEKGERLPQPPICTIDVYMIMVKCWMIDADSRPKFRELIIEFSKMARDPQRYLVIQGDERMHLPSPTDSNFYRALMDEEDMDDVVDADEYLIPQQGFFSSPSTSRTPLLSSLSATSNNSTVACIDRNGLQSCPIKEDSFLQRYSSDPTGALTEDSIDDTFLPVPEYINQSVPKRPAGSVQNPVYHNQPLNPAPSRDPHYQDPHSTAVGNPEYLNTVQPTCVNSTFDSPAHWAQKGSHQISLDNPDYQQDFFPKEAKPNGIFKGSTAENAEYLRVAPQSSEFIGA
How it was run: as §1

[3] = target: T3, various mutants of kinase EGFR (BaF3 cell lines stably transfected with kinase) (Homo sapiens, UniProt P00533, L858R)
T3 construct: expressed in transfected cells; host or cells: BaF3
T3 sequence (P00533 25-1210 L858R): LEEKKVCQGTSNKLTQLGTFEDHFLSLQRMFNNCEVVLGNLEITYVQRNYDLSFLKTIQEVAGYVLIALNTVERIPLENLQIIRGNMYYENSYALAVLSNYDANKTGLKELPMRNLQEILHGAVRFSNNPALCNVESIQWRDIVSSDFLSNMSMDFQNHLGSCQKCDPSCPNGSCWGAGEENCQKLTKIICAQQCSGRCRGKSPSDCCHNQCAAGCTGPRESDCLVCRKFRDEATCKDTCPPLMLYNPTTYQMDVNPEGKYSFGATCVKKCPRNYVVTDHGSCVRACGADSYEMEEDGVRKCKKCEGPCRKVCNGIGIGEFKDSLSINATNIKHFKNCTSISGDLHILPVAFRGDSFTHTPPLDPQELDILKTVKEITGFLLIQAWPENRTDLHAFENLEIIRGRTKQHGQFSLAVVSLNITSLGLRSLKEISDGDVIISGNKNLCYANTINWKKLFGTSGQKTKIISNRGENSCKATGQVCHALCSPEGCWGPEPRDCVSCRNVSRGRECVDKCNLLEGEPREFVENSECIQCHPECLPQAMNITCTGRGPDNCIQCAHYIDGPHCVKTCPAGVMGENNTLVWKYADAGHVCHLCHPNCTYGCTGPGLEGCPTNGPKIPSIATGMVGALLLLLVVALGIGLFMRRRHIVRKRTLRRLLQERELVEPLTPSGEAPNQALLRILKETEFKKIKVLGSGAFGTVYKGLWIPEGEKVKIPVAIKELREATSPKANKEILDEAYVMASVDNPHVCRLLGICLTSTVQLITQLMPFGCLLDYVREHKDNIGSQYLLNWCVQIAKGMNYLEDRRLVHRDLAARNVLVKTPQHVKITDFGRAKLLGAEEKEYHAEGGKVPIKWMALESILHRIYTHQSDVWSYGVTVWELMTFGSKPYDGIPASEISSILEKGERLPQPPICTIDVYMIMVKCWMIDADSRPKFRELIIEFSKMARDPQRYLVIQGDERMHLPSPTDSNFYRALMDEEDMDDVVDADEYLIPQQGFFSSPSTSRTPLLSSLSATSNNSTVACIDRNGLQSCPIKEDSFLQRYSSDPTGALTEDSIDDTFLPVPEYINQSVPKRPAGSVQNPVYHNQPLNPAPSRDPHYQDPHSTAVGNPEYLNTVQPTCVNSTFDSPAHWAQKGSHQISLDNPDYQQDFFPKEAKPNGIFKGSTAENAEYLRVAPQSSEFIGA
How it was run: as §1

[4] = target: T4, various mutants of kinase EGFR (BaF3 cell lines stably transfected with kinase) (Homo sapiens, UniProt P00533, T790M, form not given)
T4 construct: other: BaF3 cells stably transfected with EGFR Δ19Del/T790M; MTS, 48 h; other: BaF3 cell line stably transfected with EGFR Δ19Del/T790M; MTS, 48
How it was run: as §1

[5] = target: T5, various mutants of kinase EGFR (BaF3 cell lines stably transfected with kinase) (Homo sapiens, UniProt P00533, C797S/L858R/T790M)
T5 construct: expressed in transfected cells; host or cells: BaF3
T5 sequence (P00533 25-1210 T790M/C797S/L858R): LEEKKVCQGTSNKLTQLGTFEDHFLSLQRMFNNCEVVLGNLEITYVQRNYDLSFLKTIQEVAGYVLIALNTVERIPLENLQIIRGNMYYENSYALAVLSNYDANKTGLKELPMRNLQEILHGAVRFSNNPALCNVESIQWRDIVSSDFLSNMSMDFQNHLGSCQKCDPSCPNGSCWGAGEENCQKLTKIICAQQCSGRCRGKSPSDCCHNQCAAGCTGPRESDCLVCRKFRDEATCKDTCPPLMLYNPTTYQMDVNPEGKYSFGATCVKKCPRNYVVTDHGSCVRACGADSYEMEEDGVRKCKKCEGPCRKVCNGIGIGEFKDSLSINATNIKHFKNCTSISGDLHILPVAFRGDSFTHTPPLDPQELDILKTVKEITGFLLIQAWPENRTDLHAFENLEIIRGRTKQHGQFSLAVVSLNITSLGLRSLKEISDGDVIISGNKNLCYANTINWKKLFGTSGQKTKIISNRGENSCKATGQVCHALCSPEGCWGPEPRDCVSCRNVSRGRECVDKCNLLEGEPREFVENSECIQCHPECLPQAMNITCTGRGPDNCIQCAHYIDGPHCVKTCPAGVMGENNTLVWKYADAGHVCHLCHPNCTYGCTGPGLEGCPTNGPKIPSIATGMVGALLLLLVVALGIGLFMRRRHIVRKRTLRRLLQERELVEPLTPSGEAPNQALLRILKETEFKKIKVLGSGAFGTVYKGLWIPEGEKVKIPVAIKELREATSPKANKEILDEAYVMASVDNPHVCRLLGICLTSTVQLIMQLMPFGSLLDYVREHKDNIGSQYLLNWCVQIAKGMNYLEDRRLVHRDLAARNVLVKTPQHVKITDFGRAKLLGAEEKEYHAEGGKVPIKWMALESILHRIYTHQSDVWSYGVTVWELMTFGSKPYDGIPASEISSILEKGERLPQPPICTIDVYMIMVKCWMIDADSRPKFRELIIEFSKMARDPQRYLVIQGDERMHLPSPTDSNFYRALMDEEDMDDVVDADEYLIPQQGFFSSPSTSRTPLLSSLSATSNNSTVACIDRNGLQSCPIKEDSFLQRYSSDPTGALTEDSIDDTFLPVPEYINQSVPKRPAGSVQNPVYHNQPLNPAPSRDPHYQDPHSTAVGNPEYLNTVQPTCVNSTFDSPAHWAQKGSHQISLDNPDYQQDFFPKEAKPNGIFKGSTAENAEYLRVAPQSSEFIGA
How it was run: as §1

[6] = target: T6, various mutants of kinase EGFR (BaF3 cell lines stably transfected with kinase) (Homo sapiens, UniProt P00533, T790M/C797S, form not given)
T6 construct: other: BaF3 cells stably transfected with EGFR Δ19Del/T790M/C797S; MTS, 48; other: BaF3 cell line stably transfected with EGFR Δ19Del/T790M/C7
T6 sequence (P00533 with tags, fused parts or gaps DEL746-750/T790M/C797S, form open): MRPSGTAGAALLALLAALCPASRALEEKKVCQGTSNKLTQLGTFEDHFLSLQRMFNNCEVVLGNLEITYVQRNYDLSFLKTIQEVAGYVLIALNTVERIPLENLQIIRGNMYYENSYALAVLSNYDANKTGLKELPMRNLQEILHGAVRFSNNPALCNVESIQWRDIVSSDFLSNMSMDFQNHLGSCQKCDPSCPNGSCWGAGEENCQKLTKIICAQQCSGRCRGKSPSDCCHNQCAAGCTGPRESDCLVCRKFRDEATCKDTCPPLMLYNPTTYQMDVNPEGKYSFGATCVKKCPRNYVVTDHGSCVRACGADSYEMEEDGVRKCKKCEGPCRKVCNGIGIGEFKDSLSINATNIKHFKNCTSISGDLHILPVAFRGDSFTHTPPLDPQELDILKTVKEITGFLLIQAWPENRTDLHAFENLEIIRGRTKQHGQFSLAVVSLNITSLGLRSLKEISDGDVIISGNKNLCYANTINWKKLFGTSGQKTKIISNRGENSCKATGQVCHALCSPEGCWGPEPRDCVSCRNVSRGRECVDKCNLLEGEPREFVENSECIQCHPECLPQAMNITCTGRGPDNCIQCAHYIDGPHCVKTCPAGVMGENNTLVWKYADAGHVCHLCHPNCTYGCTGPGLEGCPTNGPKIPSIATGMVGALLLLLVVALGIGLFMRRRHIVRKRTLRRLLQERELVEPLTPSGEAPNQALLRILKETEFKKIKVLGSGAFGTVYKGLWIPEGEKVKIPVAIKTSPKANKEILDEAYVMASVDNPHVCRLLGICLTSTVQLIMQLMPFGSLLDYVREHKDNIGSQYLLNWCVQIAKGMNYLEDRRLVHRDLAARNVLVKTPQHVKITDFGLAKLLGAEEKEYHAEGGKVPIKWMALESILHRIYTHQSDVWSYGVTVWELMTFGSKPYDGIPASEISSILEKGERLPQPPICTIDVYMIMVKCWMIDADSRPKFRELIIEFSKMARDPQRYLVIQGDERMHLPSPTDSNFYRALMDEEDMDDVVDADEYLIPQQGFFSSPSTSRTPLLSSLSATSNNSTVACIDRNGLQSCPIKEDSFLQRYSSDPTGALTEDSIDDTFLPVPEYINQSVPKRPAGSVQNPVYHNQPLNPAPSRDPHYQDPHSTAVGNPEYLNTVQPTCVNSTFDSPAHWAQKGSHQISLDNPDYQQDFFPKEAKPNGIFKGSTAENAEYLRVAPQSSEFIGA
How it was run: as §1

[7] = BaF3 cells stably transfected with EGFR Δ19Del, read-out: IC50, growth inhibition, Δ19Del
[8] = BaF3 cells stably transfected with EGFR L858R/T790M, read-out: IC50, growth inhibition, L858R/T790M
[9] = BaF3 cells stably transfected with EGFR L858R, read-out: IC50, growth inhibition, L858R
[10] = BaF3 cells stably transfected with EGFR Δ19Del/T790M, read-out: IC50, growth inhibition, Δ19Del/T790M
[11] = BaF3 cells stably transfected with EGFR L858R/T790M/C797S, read-out: IC50, growth inhibition, L858R/T790M/C797S
[12] = BaF3 cells stably transfected with EGFR Δ19Del/T790M/C797S, read-out: IC50, growth inhibition, Δ19Del/T790M/C797S
[13] = BaF3 cell line stably transfected with EGFR Δ19Del, read-out: Δ19Del growth inhibitory activity IC50
[14] = BaF3 cell line stably transfected with EGFR L858R/T790M, read-out: L858R/ T790M growth inhibitory activity IC50
[15] = BaF3 cell line stably transfected with EGFR L858R, read-out: L858R growth inhibitory activity IC50
[16] = BaF3 cell line stably transfected with EGFR Δ19Del/T790M, read-out: Δ19Del/ T790M growth inhibitory activity IC50
[17] = BaF3 cell line stably transfected with EGFR L858R/T790M/C797S, read-out: L858R/T790M/ C797S growth inhibitory activity IC50
[18] = BaF3 cell line stably transfected with EGFR Δ19Del/T790M/C797S, read-out: Δ19Del/T790M/ C797S growth inhibitory activity IC50

Structure (SMILES)	IC50 [1, 7]	IC50 [2, 8]	IC50 [3, 9]	IC50 [4, 10]	IC50 [5, 11]	IC50 [6, 12]	IC50 [1, 13]	IC50 [2, 14]	IC50 [3, 15]	IC50 [4, 16]	IC50 [5, 17]	IC50 [6, 18]
C=Cc1cc(Nc2ncc(Cl)c(Nc3ccc4nccnc4c3N(C)S(=O)(=O)CC)n2)c(OC(F)(F)F)cc1N1CCC(N2CCN(C)CC2)CC1 [Compound I-295]	50 to 500 nM	50 to 500 nM	50 to 500 nM	50 to 500 nM	50 to 500 nM	≤ 50 nM	–	–	–	–	–	–
CCN(c1c(Nc2nc(Nc3ccc(N4CCC(N5CCN(C)CC5)CC4)nc3OC)ncc2Br)ccc2nccnc12)S(C)(=O)=O [Compound I-296]	50 to 500 nM	50 to 500 nM	50 to 500 nM	50 to 500 nM	50 to 500 nM	500 to 2500 nM	–	–	–	–	–	–
CCN(c1c(Nc2nc(Nc3cc(C)c(N4CCC(N5CCN(C)CC5)CC4)nc3OC)ncc2Br)ccc2nccnc12)S(C)(=O)=O [Compound I-297]	500 to 2500 nM	50 to 500 nM	50 to 500 nM	50 to 500 nM	500 to 2500 nM	500 to 2500 nM	–	–	–	–	–	–
C=Cc1cc(Nc2ncc(Br)c(Nc3ccc4nccnc4c3N(CC)S(C)(=O)=O)n2)c(OC(F)(F)F)cc1N1CCC(N2CCN(C)CC2)CC1 [Compound I-298]	50 to 500 nM	50 to 500 nM	50 to 500 nM	≤ 50 nM	≤ 50 nM	≤ 50 nM	–	–	–	–	–	–
CCN(c1c(Nc2nc(Nc3cc(C)c(N4CCC(N(C)C)CC4)cc3OC)ncc2Br)ccc2nccnc12)S(C)(=O)=O [Compound I-299]	≤ 50 nM	≤ 50 nM	50 to 500 nM	≤ 50 nM	≤ 50 nM	≤ 50 nM	–	–	–	–	–	–
CCN(c1c(Nc2nc(Nc3cc(C)c(N4CCN(C)CC4)cc3OC)ncc2Br)ccc2nccnc12)S(C)(=O)=O [Compound I-300]	50 to 500 nM	≤ 50 nM	50 to 500 nM	50 to 500 nM	≤ 50 nM	≤ 50 nM	–	–	–	–	–	–
CCc1cc(Nc2ncc(Br)c(Nc3ccc4nccnc4c3N(CC)S(C)(=O)=O)n2)c(OC)cc1N1CCN(C)CC1 [Compound I-301]	50 to 500 nM	≤ 50 nM	≤ 50 nM	≤ 50 nM	≤ 50 nM	≤ 50 nM	–	–	–	–	–	–
CCN(c1c(Nc2nc(Nc3cc(C)c(N4CCC(N(C)C)C4)cc3OC)ncc2Br)ccc2nccnc12)S(C)(=O)=O (stereo not drawn) [Compound I-302]	50 to 500 nM	≤ 50 nM	50 to 500 nM	≤ 50 nM	≤ 50 nM	50 to 500 nM	–	–	–	–	–	–
COc1cc(N2CCC(N3CCN(C)CC3)CC2)ccc1Nc1ncc(Cl)c(Nc2ccc3nccnc3c2N(C2CC2)S(C)(=O)=O)n1 [Compound I-303]	–	–	–	–	–	–	50 to 500 nM	50 to 500 nM	50 to 500 nM	50 to 500 nM	≤ 50 nM	≤ 50 nM
C=Cc1cc(Nc2ncc(Cl)c(Nc3ccc4nccnc4c3N(C3CC3)S(C)(=O)=O)n2)c(OC(F)(F)F)cc1N1CCC(N2CCN(C)CC2)CC1 [Compound I-304]	–	–	–	–	–	–	50 to 500 nM	≤ 50 nM	50 to 500 nM	≤ 50 nM	50 to 500 nM	50 to 500 nM
COc1nc(N2CCC(N3CCN(C)CC3)CC2)ccc1Nc1ncc(Br)c(Nc2ccc3nccnc3c2N(C2CC2)S(C)(=O)=O)n1 [Compound I-305]	–	–	–	–	–	–	50 to 500 nM	≤ 50 nM	50 to 500 nM	50 to 500 nM	50 to 500 nM	50 to 500 nM
COc1nc(N2CCC(N3CCN(C)CC3)CC2)c(C)cc1Nc1ncc(Br)c(Nc2ccc3nccnc3c2N(C2CC2)S(C)(=O)=O)n1 [Compound I-306]	–	–	–	–	–	–	500 to 2500 nM	50 to 500 nM	50 to 500 nM	50 to 500 nM	500 to 2500 nM	500 to 2500 nM
C=Cc1cc(Nc2ncc(Br)c(Nc3ccc4nccnc4c3N(C3CC3)S(C)(=O)=O)n2)c(OC(F)(F)F)cc1N1CCC(N2CCN(C)CC2)CC1 [Compound I-307]	–	–	–	–	–	–	500 to 2500 nM	50 to 500 nM	500 to 2500 nM	50 to 500 nM	50 to 500 nM	50 to 500 nM
COc1cc(N2CCC(N3CCN(C)CC3)CC2)c(CC2CC2)cc1Nc1ncc(Br)c(Nc2ccc3nccnc3c2N(C2CC2)S(C)(=O)=O)n1 [Compound I-308]	–	–	–	–	–	–	50 to 500 nM	≤ 50 nM	50 to 500 nM	≤ 50 nM	50 to 500 nM	≤ 50 nM
COc1cc(N2CCN(C)CC2)c(C)cc1Nc1ncc(Br)c(Nc2ccc3nccnc3c2N(C2CC2)S(C)(=O)=O)n1 [Compound I-309]	–	–	–	–	–	–	50 to 500 nM	≤ 50 nM	≤ 50 nM	≤ 50 nM	≤ 50 nM	≤ 50 nM
CCc1cc(Nc2ncc(Br)c(Nc3ccc4nccnc4c3N(C3CC3)S(C)(=O)=O)n2)c(OC)cc1N1CCN(C)CC1 [Compound I-310]	–	–	–	–	–	–	50 to 500 nM	≤ 50 nM	≤ 50 nM	≤ 50 nM	≤ 50 nM	≤ 50 nM
COc1cc(N2CCC(N(C)C)CC2)c(C)cc1Nc1ncc(Br)c(Nc2ccc3nccnc3c2N(C2CC2)S(C)(=O)=O)n1 [Compound I-311]	–	–	–	–	–	–	50 to 500 nM	≤ 50 nM	50 to 500 nM	≤ 50 nM	≤ 50 nM	≤ 50 nM
COc1cc(N2CCC(N(C)C)C2)c(C)cc1Nc1ncc(Br)c(Nc2ccc3nccnc3c2N(C2CC2)S(C)(=O)=O)n1 (stereo not drawn) [Compound I-312]	–	–	–	–	–	–	50 to 500 nM	≤ 50 nM	50 to 500 nM	≤ 50 nM	≤ 50 nM	≤ 50 nM
COc1cc(N2CCC(N3CCN(C)CC3)CC2)ccc1Nc1ncc(C)c(Nc2ccc3nccnc3c2N(C)S(C)(=O)=O)n1 [Compound I-313]	–	–	–	–	–	–	50 to 500 nM	50 to 500 nM	50 to 500 nM	50 to 500 nM	50 to 500 nM	≤ 50 nM
CCc1cc(Nc2ncc(C)c(Nc3ccc4nccnc4c3N(C)S(C)(=O)=O)n2)c(OC(F)(F)F)cc1N1CCC(N2CCN(C)CC2)CC1 [Compound I-314]	–	–	–	–	–	–	50 to 500 nM	≤ 50 nM	50 to 500 nM	≤ 50 nM	≤ 50 nM	≤ 50 nM
